Measurements from US7304084B2, “6-[(4,5-Dihydro-1H-imidazol-2-yl)amino]-7-methyl-1H-benzimidazole-4-carbonitrile and its preferred salt” (The Board of Regents of the University of Nebraska, priority 2003, dated 2007).
Converted amounts (≈) assume the structure as drawn. Where a name gives a salt, the structure may show the parent alone. Read-outs that look alike come from different tables or passages of the source.

How the values were obtained:
[1] = Solubility in water at ambient temperature (saturated solution, supernatant by quantitative HPLC); type: physicochemical
Description: One such technique is to prepare a saturated solution of the salt form by shaking a suspension of the salt form in water, until a saturated solution is obtained. The saturated solution is then centrifuged and the concentration of the supernatant is determined by quantitative HPLC analysis. A suitable HPLC method is described in Example 1.

[2] = Ames Test dose/response studies; type: cell-based; conditions: impurity (2) present in compound (1) and its various salt forms
Text: [drawing 10] is produced in pharmaceutically unacceptable levels using these previous methods. Based on dose/response studies using an Ames Test, the mutagenic impurity (2) is shown to elicit a positive response when present at level about 1 ppm (parts per million) in 6-[(4,5-Dihydro-1H-imidazol-2-yl)amino-]-7-methyl-1H-benzimidazole-4-carbonitrile (1) and its various salt forms. Low levels of this phenazine impurity can be detected by those methods well known in the art such as HPLC with fluorescence detection. Suitable examples of such assays are described in Examples 1, 2, and 3 herein. A suitable preparation of labeled ^15N4-2,3,7-Triamino-4,6-dimethyl-1,9-phenazinedicarbonitrile is described in Example 4 herein. A suitable preparation of non-labeled 2,3,7-Triamino-4,6-dimethyl-1,9-phenazinedicarbonitrile is described in Example 19 herein. III. Methods of Making Intermediate of Formula (II)

For `CC(=O)O.Cc1c(NC2=NCCN2)cc(C#N)c2nc[nH]c12` [Acetate Salt Form, 6-[(4,5-Dihydro-1H-imidazol-2-yl)amino-]-7-methyl-1H-benzimidazole-4-carbonitrile, Acetic Acid Salt (1:1)], the solubility in water [1] was “about 135 mg/mL”.

With `Cc1c(N)cc(C#N)c2nc3c(C#N)c(N)c(N)c(C)c3nc12` [compound 2, 2,3,7-triamino-4,6-dimethyl-1,9-phenazinedicarbonitrile] the “level of the impurity at which a positive response is elicited in the Ames Test” value [2] was “about 1 ppm”.

Work on `Cc1c(N=C2NCCN2)cc(C#N)c2[nH]cnc12` [Free Base Form, 6-[(4,5-Dihydro-1H-imidazol-2-yl)amino-]-7-methyl-1H-benzimidazole-4-carbonitrile] yielded a solubility ([1]; water, thermodynamic from solid) of roughly 400 µg/mL (≈ 1660 µM).

In the case of `Cc1c(NC2=NCCN2)cc(C#N)c2nc[nH]c12` [Sulfate Salt Form, 6-[(4,5-Dihydro-1H-imidazol-2-yl)amino-]-7-methyl-1H-benzimidazole-4-carbonitrile, reference compound], the solubility in water ([1]; water, ambient temperature) was “about 4 mg/mL”.
